For the test, the system named is L1210 leukemia ip in BDF1 mice, survival T/C. The test can be described thus: NCI In Vivo Anticancer Drug Screen. Data for tumor model L1210 Leukemia (intraperitoneal) in B6D2F1 (BDF1) mice. The settings on record: endpoint: mean survival time, higher = longer survival. In short, it runs like this:
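Survival endpoint. Drug-treated group vs vehicle group, expressed as T divided by C. Tumor passaged by transplantation.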

Where [1] appears, read: dose: 100.0 mg/kg/injection, schedule: Q01DX009 (ip), vehicle: Klucel (hydroxypropylcellulose) (HPC).
Where [2] appears, read: dose: 100.0 mg/kg/injection, schedule: Q04DX003 (ip), vehicle: Klucel (hydroxypropylcellulose) (HPC).
The mark [3] stands for this setting: dose: 200.0 mg/kg/injection, schedule: Q01DX009 (ip), vehicle: Klucel (hydroxypropylcellulose) (HPC).
The mark [4] stands for this setting: dose: 200.0 mg/kg/injection, schedule: Q04DX003 (ip), vehicle: Klucel (hydroxypropylcellulose) (HPC).
[5] abbreviates: dose: 400.0 mg/kg/injection, schedule: Q01DX009 (ip), vehicle: Klucel (hydroxypropylcellulose) (HPC).
The mark [6] stands for this setting: dose: 400.0 mg/kg/injection, schedule: Q04DX003 (ip), vehicle: Klucel (hydroxypropylcellulose) (HPC).
[7] abbreviates: dose: 100.0 mg/kg/injection, schedule: Q04DX002 (ip), vehicle: Klucel (hydroxypropylcellulose) (HPC).
The mark [8] stands for this setting: dose: 100.0 mg/kg/injection, schedule: Q01DX009 (ip), vehicle: saline.
[9] abbreviates: dose: 100.0 mg/kg/injection, schedule: Q04DX003 (ip), vehicle: saline with Tween-80.
Setting [10] is: dose: 200.0 mg/kg/injection, schedule: Q04DX003 (ip), vehicle: saline with Tween-80.
Setting [11] is: dose: 400.0 mg/kg/injection, schedule: Q04DX003 (ip), vehicle: saline with Tween-80.

The values below come from PubChem BioAssay AID248 (DTP/NCI, 2004).

Inconclusive results and toxic doses are left out.

Regarding `O=C1NCC2CCc3c(ccc4ccccc34)N12` (stereo unspecified), the T/C is 100 % of control (dose: 100.0 mg/kg/injection, schedule: Q01DX001 (ip), vehicle: other); 94 % of control (dose: 200.0 mg/kg/injection, schedule: Q01DX001 (ip), vehicle: other); 93 % of control (dose: 400.0 mg/kg/injection, schedule: Q01DX001 (ip), vehicle: other).
For `O=C(O)c1cc(=O)cc(C(=O)O)[nH]1`, the T/C is, setting by setting: under setting [1], 102 % of control; under setting [2], 102 % of control; under setting [3], 96 % of control; under setting [4], 96 % of control; under setting [5], 92 % of control; under setting [6], 104 % of control.
As for `CN1C(C)(C)CC(O)(C(O)(c2ccccc2)c2ccccc2)CC1(C)C`, the T/C (dose: 100.0 mg/kg/injection, schedule: Q04DX003 (ip), vehicle: acetone) is 98 % of control.
Turning to `N#Cc1cc(Cl)c2c(c1Cl)Nc1c(Cl)ccc(Cl)c1S2`, the T/C is 96 % of control (dose: 50.0 mg/kg/injection, schedule: Q01DX001 (ip), vehicle: saline); 96 % of control (dose: 100.0 mg/kg/injection, schedule: Q01DX001 (ip), vehicle: saline); 96 % of control (dose: 200.0 mg/kg/injection, schedule: Q01DX001 (ip), vehicle: saline); 102 % of control (dose: 400.0 mg/kg/injection, schedule: Q01DX001 (ip), vehicle: saline).
In the case of `COc1ccc(C(=O)CC(=O)CC(=O)c2ccccc2)cc1`, the T/C is, setting by setting: under setting [1], 117 % of control; under setting [2], 107 % of control; under setting [3], 102 % of control; under setting [4], 96 % of control; under setting [5], 96 % of control; under setting [6], 105 % of control.
In the case of `CCOC(=O)CCc1[nH]c2nnc(C)cc2c1[N+](=O)[O-]`, the T/C (dose: 56.3 mg/kg/injection, schedule: Q04DX002 (ip), vehicle: Klucel (hydroxypropylcellulose) (HPC)) is 100 % of control; the T/C (dose: 112.5 mg/kg/injection, schedule: Q04DX002 (ip), vehicle: Klucel (hydroxypropylcellulose) (HPC)) is 106 % of control; the T/C (dose: 225.0 mg/kg/injection, schedule: Q04DX002 (ip), vehicle: Klucel (hydroxypropylcellulose) (HPC)) was 91 % of control.
With `C/C(=N\O)c1c[nH]c(=O)[nH]c1=O`, the T/C is, setting by setting: under setting [7], 94 % of control; (dose: 200.0 mg/kg/injection, schedule: Q04DX002 (ip), vehicle: Klucel (hydroxypropylcellulose) (HPC)) 103 % of control.
Take `Nc1nc(N)c(-c2ccc(Cl)c(Cl)c2)c(CCc2ccc(NS(=O)(=O)c3cccc(S(=O)(=O)F)c3)cc2)n1`: the T/C by setting is: (dose: 100.0 mg/kg/injection, schedule: Q01DX001 (ip), vehicle: saline with Tween-80) 98 % of control; (dose: 200.0 mg/kg/injection, schedule: Q01DX001 (ip), vehicle: saline with Tween-80) 95 % of control; (dose: 400.0 mg/kg/injection, schedule: Q01DX001 (ip), vehicle: saline with Tween-80) 87 % of control.
Take `CC(=O)NC(CSC(=S)N(C)C)C(=O)O` (stereo unspecified): the T/C was 97 % of control (dose: 50.0 mg/kg/injection, schedule: Q01DX009 (ip), vehicle: saline); 93 % of control under setting [8]; 101 % of control (dose: 200.0 mg/kg/injection, schedule: Q01DX009 (ip), vehicle: saline).
For the molecule `CCCCCCCCCN(C)C(C)=O`, the T/C by setting is: (dose: 75.0 mg/kg/injection, schedule: Q01DX001 (ip), vehicle: carboxymethylcellulose (CMC)) 94 % of control; (dose: 150.0 mg/kg/injection, schedule: Q01DX001 (ip), vehicle: carboxymethylcellulose (CMC)) 91 % of control; (dose: 300.0 mg/kg/injection, schedule: Q01DX001 (ip), vehicle: carboxymethylcellulose (CMC)) 96 % of control.
As for `Cc1ccc(O)cn1`, the T/C runs as follows: under setting [9], 100 % of control; under setting [10], 96 % of control; under setting [11], 103 % of control.
With `O=NN(CCCl)C(=O)NC(C(=O)O)C1CCCCC1` (stereo unspecified), the T/C by setting is: (dose: 8.0 mg/kg/injection, schedule: Q01DX001 (ip), vehicle: saline with Tween-80) 118 % of control; (dose: 12.0 mg/kg/injection, schedule: Q01DX001 (ip), vehicle: saline with Tween-80) 171 % of control; (dose: 26.0 mg/kg/injection, schedule: Q01DX001 (ip), vehicle: saline with Tween-80) 153 % of control; (dose: 40.0 mg/kg/injection, schedule: Q01DX001 (ip), vehicle: saline with Tween-80) 253 % of control; (dose: 60.0 mg/kg/injection, schedule: Q01DX001 (ip), vehicle: saline with Tween-80) 412 % of control; (dose: 90.0 mg/kg/injection, schedule: Q01DX001 (ip), vehicle: saline with Tween-80) 482 % of control. Under “dose: 133.0 mg/kg/injection, schedule: Q01DX001 (ip), vehicle: saline with Tween-80”, the T/C was 266 % of control.
On to `CCC[CH2][Sn]([S][Sn]([CH2]CCC)([c]1ccccc1)[c]1ccccc1)([c]1ccccc1)[c]1ccccc1`, for which the T/C runs as follows: (dose: 100.0 mg/kg/injection, schedule: Q04DX002 (ip), vehicle: saline with Tween-80) 96 % of control; (dose: 200.0 mg/kg/injection, schedule: Q04DX002 (ip), vehicle: saline with Tween-80) 103 % of control.
For the molecule `O=C1/C(=C/c2ccncc2)CCCc2ccccc21`, the T/C is 98 % of control (dose: 6.25 mg/kg/injection, schedule: Q04DX003 (ip), vehicle: Klucel (hydroxypropylcellulose) (HPC)); 97 % of control (dose: 12.5 mg/kg/injection, schedule: Q04DX003 (ip), vehicle: Klucel (hydroxypropylcellulose) (HPC)); 97 % of control (dose: 25.0 mg/kg/injection, schedule: Q04DX003 (ip), vehicle: Klucel (hydroxypropylcellulose) (HPC)); 100 % of control (dose: 200.0 mg/kg/injection, schedule: Q04DX003 (ip), vehicle: carboxymethylcellulose (CMC)).
For `CCOC(=O)/C(C)=N\Nc1ccc([N+](=O)[O-])cc1`, the T/C is, setting by setting: (dose: 50.0 mg/kg/injection, schedule: Q01DX001 (ip), vehicle: carboxymethylcellulose (CMC)) 92 % of control; (dose: 100.0 mg/kg/injection, schedule: Q01DX001 (ip), vehicle: carboxymethylcellulose (CMC)) 90 % of control; (dose: 200.0 mg/kg/injection, schedule: Q01DX001 (ip), vehicle: carboxymethylcellulose (CMC)) 92 % of control; (dose: 400.0 mg/kg/injection, schedule: Q01DX001 (ip), vehicle: carboxymethylcellulose (CMC)) 103 % of control.
As to `O=C(O)c1cccc([N+](=O)[O-])c1`, the T/C was 88 % of control (dose: 50.0 mg/kg/injection, schedule: Q04DX002 (ip), vehicle: Klucel (hydroxypropylcellulose) (HPC)) and 94 % of control under setting [7].
On to `COc1cc(C(=O)O)cc(OC)n1`, for which the T/C runs as follows: under setting [9], 102 % of control; under setting [10], 96 % of control; under setting [11], 96 % of control.
With `C[N+](C)(C)CCOC(=O)c1ccc(CBr)cc1`, the T/C was 104 % of control (dose: 25.0 mg/kg/injection, schedule: Q01DX009 (ip), vehicle: saline with Tween-80); 108 % of control (dose: 50.0 mg/kg/injection, schedule: Q01DX009 (ip), vehicle: saline with Tween-80); 90 % of control (dose: 50.0 mg/kg/injection, schedule: Q04DX002 (ip), vehicle: saline); 86 % of control (dose: 100.0 mg/kg/injection, schedule: Q01DX009 (ip), vehicle: saline with Tween-80); 103 % of control under setting [8]; 98 % of control (dose: 100.0 mg/kg/injection, schedule: Q04DX002 (ip), vehicle: saline).
Consider `CSC1CCCC(=O)C1` (stereo unspecified), for which the T/C runs as follows: under setting [1], 98 % of control; under setting [2], 96 % of control; under setting [3], 101 % of control; under setting [4], 97 % of control; under setting [5], 96 % of control; under setting [6], 105 % of control.
